Experiment: Human HepG2 cell viability assay in 384 well format
Format: toxicity, cell-based
Parameters: dose 125 nL, time 70.5 hour; cytotoxicity at 70.5 h: concentration not given beside the values
Settings: HepG2 cells, read-out: Inhibition

Row | SMILES | cytotoxicity at 70.5 h [%]
1 | c1ccc(-c2noc(CCCN3CCCC3Cn3cccn3)n2)cc1 (centres undefined) | 10.7
2 | Cc1nc2cc(OCc3nc(C(=O)NC(CO)CO)co3)ccc2s1 | -8.5
3 | Cc1cnn(CC2CCCCN2Cc2c(C)noc2C)c1 (centres undefined) | -14.5
4 | Cc1cnn(CC2CCCN2C(=O)c2c(F)cccc2Cl)c1 (centres undefined) | 0.266
5 | COc1cc(C)c(CN2CCC3(CC2)C(C(=O)O)CC(=O)N3C)cc1C (centres undefined) | 3.6
6 | CC(=O)NC1CCN(c2ncnc3c2c(C)nn3C)C1 (centres undefined) | -7.17
7 | O=c1c2c(ncn1CCO)nc1n2CCC1 | -5.61
8 | O=C(O)CSc1nnc(-c2ccn[nH]2)n1-c1ccccc1C(F)(F)F | -3.95
9 | Fc1ccccc1Cc1noc(CN2CC[C@@H]3CCCC[C@H]3C2)n1 | -4.61
10 | Cc1csc(CNc2cnn(CC(C)C)c2)n1 | 3.86
11 | Cc1nn(CCC(=O)N2CCCC(OCc3cccnc3)C2)c(C)c1C (centres undefined) | -6.47
12 | CCOCC(O)CN1CCN(C(=O)CC(C)(C)C)CC1 (centres undefined) | -18.5
13 | Cc1cnc(C(=O)N2CCc3ncnc(-c4cnn(C)c4)c3CC2)cn1 | 0.39
14 | CCC(Oc1ccccc1)c1nn2c(CN(CC)CC)nnc2s1 (centres undefined) | -7.01
15 | CCOc1ccc(SCCNS(=O)(=O)CC)cc1 | -11.3
16 | NC(=O)COc1ccc(CNCc2ccc(F)cc2F)cc1 | -5.1
17 | Cc1noc([C@H]2COC[C@H]3CN(C(=O)Cc4cccc(F)c4)C[C@H]32)n1 | -16.4
18 | Cc1ccc(CN(C)C(=O)CN2CCCC(Cn3cncn3)C2)cc1 (centres undefined) | 22.9
19 | CCC[C@@H]1CN(Cc2cnc3c(S(C)(=O)=O)cnn3c2)C[C@H]1N(C)C | -7.08
20 | c1csc(C(CNCc2cccc3c2OCO3)N2CCOCC2)c1 (centres undefined) | -13.2
21 | COc1ccccc1-c1cc(C(=O)N(C)C)nc2c1cnn2C | -11.4
22 | COCc1noc(Cn2c(=O)[nH]c3ccccc32)n1 | -10.2
23 | Cn1ccnc1CN(CCCO)C1CCCc2ccccc21 (centres undefined) | 7.41

Row | SMILES | cytotoxicity at 70.5 h [%]
24 | CCOc1ccccc1N(C)C(=O)c1cscn1 | 0.806
25 | Cc1oncc1NS(=O)(=O)c1c[nH]c2ncccc12 | -3.88
26 | COC(=O)N1CCCC(NC(=O)NCc2cccc(C)n2)C1 (centres undefined) | -6.49
27 | C=C(C)COc1cccc(CNC(CC)c2ccnn2C)c1 (centres undefined) | 1.1
28 | Cc1csc(N2CCN(C(=O)CCNc3ncccn3)CC2)n1 | -11.3
29 | OCCNC1CSCCc2ccccc21 (centres undefined) | 33.4
30 | O=C(Nc1ccccc1)N1CCn2nnc(COc3cccnc3)c2C1 | 1.76
31 | CS(=O)(=O)Nc1ccn(Cc2cccc(Cl)c2)n1 | -4.43
32 | CCOC(=O)NC(CNC(=O)CCc1ccccn1)CC(C)C (centres undefined) | -8.82
33 | Cc1ccc(C(=O)N2CCCC2c2nnc3n2CCCCC3)s1 (centres undefined) | 8.9
34 | Cc1nc(COCc2nc3c(o2)CN(C(=O)c2ccoc2)C3)cs1 | -7.05
35 | Cc1nnc(NCCc2coc(-c3ccccc3)n2)c(C#N)c1C | -2.75
36 | Cc1ncsc1-c1nnc(C2CCCN2C(=O)Cn2cccn2)o1 (centres undefined) | 3.13
37 | Cc1nccc([C@@H]2C[C@@H]3CCN(Cc4c(C)noc4C)C[C@H]3O2)n1 | -10.7
38 | CCN1C(=O)CCC12CCCN(Cc1nccs1)C2 (centres undefined) | -13.8
39 | CN1CCN(CC2CC2)C(=O)c2cnc(N3CCCCC3)nc21 | 30.2
40 | OCc1csc(N2C[C@@H](CN3CCCCCC3)[C@@H](CO)C2)n1 | -7.86
41 | CC(C)C1SCC(=O)Nc2c1cnn2-c1ccc(F)cc1 (centres undefined) | -1.99
42 | CCc1ncc2c(n1)CN(C(=O)CNC(=O)C(C)C)C2 | 22.7
43 | CSCC(CCO)NC(=O)c1cccc(F)c1Cl (centres undefined) | 24.5
44 | OC(COCc1ccc2c(c1)OCO2)CN1CC(n2cccn2)C1 (centres undefined) | 3.04
45 | CC(=O)Nc1nc(C(=O)NC(C)c2ccc3c(c2)OCCO3)cs1 (centres undefined) | -11.4
46 | CC(C)NC(=O)N1C[C@H]2C[C@H](C(=O)N3CCCC3)[C@@H](C1)O2 | 21.9

Row | SMILES | cytotoxicity at 70.5 h [%]
47 | Cc1cc(C(=O)N2C[C@@H](CN(C)CCN(C)C)[C@@H](CO)C2)nc(C)n1 | 21.1
48 | COc1ccc(Cc2nnc(NC(=O)C3CC34CCC4)s2)cc1OC (centres undefined) | 0.282
49 | COC(=O)C1=C(C)N=C2SCC(=O)N2C1c1cnn(C)c1C (centres undefined) | -1.28
50 | c1ncn(Cc2cn3c(n2)CN(CC2CCCC2)CC3)n1 | 1.84
51 | CC(C)c1ncncc1C(=O)N1CCCN(Cc2ccccc2)CC1 | -15.3
52 | COC(=O)c1cc(CN2CCC(c3noc(C)n3)CC2)c(C)s1 | 2.05
53 | CN1CCN(C(=O)c2nc3c(s2)CCCN3C(=O)C2CC2)CC1 | -3.93
54 | COC(=O)CC1CCN(C(=O)c2ccc(C)cc2)CC1 | -4.4
55 | Cc1ccc(OC2CCN(C(=O)C(C)Cn3cccn3)CC2)cc1 (centres undefined) | 0.0943
56 | O=C(Nc1ccc(-c2csnn2)cc1)NC(CCO)C1CC1 (centres undefined) | 18
57 | O=C(c1ccc(-c2ccc(O)nc2)s1)N1CCCCCC1 | -10.4
58 | Cc1nc2c(c(N3CC=CC3)n1)CCN(c1ncccc1C(N)=O)CC2 | -2.97
59 | COc1cccc2cc(CNCc3ccnc(N4CCOCC4)c3)oc12 | 11.7
60 | CCCC(=O)Nc1cc(C(=O)NC(C)Cc2ccncc2)ccc1C (centres undefined) | -5.95
61 | CSCCCn1ccnc1-c1cccc(C#N)c1 | 8.22
62 | Cc1nnc(-c2cccc(C#N)c2)n1C1CCCN(C(C)C)C1=O (centres undefined) | -9.5
63 | Cc1nc(CNC(=O)Nc2ccc3c(c2)CCCC(=O)N3)sc1C | -0.115
64 | CCN1CCn2c(C)cnc2C12CCN(C(=O)NCC(C)C)CC2 | -11.3
65 | COC(=O)N1CCCC(C(=O)Nc2ccccc2CN2CCCC2)C1 (centres undefined) | -0.192
66 | Cc1cccc(C(=O)N2C[C@@H](C)[C@@]3(CCN(c4ccsc4)C3=O)C2)n1 | -16.4
67 | CN(C)C(=O)N1CCN(c2ccc(Cl)nn2)C(=O)C1 | -7.53
68 | CN1CCOC(C(=O)Nc2ccc3c(c2)nc(C2CC2)n3C)C1 (centres undefined) | -3.17
69 | CC(C)(CO)NC(=O)C1CCC(=O)N(Cc2ccc(Cl)cc2)C1 (centres undefined) | -8.51

Row | SMILES | cytotoxicity at 70.5 h [%]
70 | CSc1ncc(C(=O)N2CCC(O)(CN3CCOCC3)C(C)(C)C2)cn1 (centres undefined) | -0.923
71 | CC(C)(C)CN1CCCC2(CCN(C(=O)c3cn[nH]c3)C2)C1 (centres undefined) | -9.2
72 | N#Cc1ccccc1CN1CCC(c2nccn2CC(N)=O)CC1 | -4.95
73 | C1=C(CNC2CCc3ncnn3C2)COc2ccccc21 (centres undefined) | -9.66
74 | Fc1ccccc1Cc1noc(CN2CCCC(CN3CCCC3)C2)n1 (centres undefined) | -2.47
75 | COc1ccc(CNC(C)Cn2cccn2)cc1F (centres undefined) | -1.59
76 | Cc1ccsc1CN1C[C@@H]2COC[C@]2(COCC(=O)N(C)C)C1 | -0.655
77 | CC(C)c1ccnc(N[C@H]2COC[C@@H]2N2CCCC2)n1 | -15.2
78 | CC(C)CC(NCc1ccsc1)c1ccccn1 (centres undefined) | 22.4
79 | CC(Cc1ccccc1Br)NC(=O)CCS(C)(=O)=O (centres undefined) | 27.4
80 | O=C(Cc1ccc(F)cc1)NS(=O)(=O)c1ccc(F)c(F)c1 | -2.89
81 | O=C(Cn1cnc(NC(=O)c2ccccn2)n1)NCc1ccccc1 | -12.9
82 | Cn1cc(CN2CC[C@H]3C[C@H](c4nc(C5CC5)cs4)O[C@@H]3C2)cn1 | -12.5
83 | CNC(=O)C(C)(C)N1CCC[C@H]1C(=O)NCC1CC1 | 9.57
84 | CC(C)=CCN1CCN(C(=O)COc2ccccc2)[C@H]2CS(=O)(=O)C[C@H]21 | 1.61
85 | N#CCC(=O)NCc1nnc2n1CCN(Cc1nccs1)C2 | -4.61
86 | CCn1nc(CC(C)C)cc1C(=O)NCCS(=O)(=O)N(C)C | 3.89
87 | CC(=O)c1cccc(S(=O)(=O)N2CCC(c3noc(C)n3)CC2)c1 | -9.37
88 | O=C1NCCCCC1NC(=O)C1(c2ccc3c(c2)OCCO3)CCCC1 (centres undefined) | 27.7
89 | CN(Cc1cccnc1)[C@@H]1CN(C(=O)c2ccco2)[C@@H]2CCCO[C@H]12 | -10.7
90 | N#Cc1cccnc1OC1CCN(S(=O)(=O)c2c(F)cccc2F)CC1 | 39.9
91 | C1CN(c2nc(C3CC3)ns2)CCO1 | -5.18
92 | CN1C(=O)C(c2cccnc2)CC12CCN(CCO)CC2 (centres undefined) | -0.847

Row | SMILES | cytotoxicity at 70.5 h [%]
93 | CCCc1nc(NCCCOCC)c2c(n1)c(C)nn2CC | -18.2
94 | CC(=O)N(C)Cc1cccc(NC(=O)CCCc2nc(C(C)C)no2)c1 | 9.44
95 | CCc1cc(NCc2cc(CC(C)C)on2)n2nccc2n1 | -2.02
96 | CSCCC(=O)N1CCCC(n2ccnc2)C1 (centres undefined) | -6.36
97 | CCc1nnc2n1CCN(C(C(=O)NC1CC1)c1ccccc1)C2 (centres undefined) | -7.08
98 | CNc1nc(CNC(=O)Nc2cccc(C)c2Cl)cs1 | -1.43
99 | Cc1cnc(CN2CCN(C(C)c3nc(C(C)C)no3)CC2)cn1 (centres undefined) | -6.56
100 | CC(=O)N(C)CC(=O)NCC1(c2c(F)cccc2F)CCCC1 | 0.534
101 | COc1ccccc1OCC(=O)NS(=O)(=O)c1ccc(F)cc1F | -8.29
102 | c1ccc(COCC2CNCc3nccn3C2)nc1 (centres undefined) | 0.439
103 | N#Cc1ccc(N2CCN(C(=O)c3cc(C4CC4)[nH]n3)CC2)c(F)c1 | -8.69
104 | CN(C)c1cc(C2CCCN(S(=O)(=O)c3cn[nH]c3)C2)ccn1 (centres undefined) | -1.45
105 | CC(C)S(=O)(=O)c1nnc(CCNC(=O)OC(C)(C)C)o1 | 29.5
106 | CCc1nc(C2CCCN2CCS(=O)(=O)c2ccccc2)no1 (centres undefined) | -1.81
107 | CCn1ncc(-c2cc(C(F)(F)F)nc(N3CCC(N)CC3)n2)c1C | 8.37
108 | CN(Cc1cccnc1)[C@@H]1CN(C(=O)c2ccoc2)[C@@H]2CCCO[C@H]12 | -11.9
109 | CCN(CC)C(=O)CN(C)C(=O)c1cccn1CCc1ccccc1 | -3.38
110 | Cc1ncc(CNC(=O)Cc2ccc(Cl)cc2)c(C2CCCN2C)n1 (centres undefined) | -16.7
111 | O=C1C[C@H]2CC[C@@H](CN1)N2C(=O)CCc1ccccc1 | -8.36
112 | Cn1cccc1C(O)CNS(=O)(=O)c1ccccc1Br (centres undefined) | -0.453
113 | CC(C)c1nc(CN(C)C(=O)C2CC(=O)N(Cc3ccncc3)C2)cs1 (centres undefined) | 5.05
114 | Cc1cc(CN(Cc2cccs2)CC2CCCO2)no1 (centres undefined) | -0.996
